Measured values from paper PMC7948456, “Kinetics of cytochrome P450 3A4 inhibition by heterocyclic drugs defines a general sequential multistep binding process” (The Journal of Biological Chemistry, 2020).

Legend:
[1] = target: T1, P450 3A4 (Homo sapiens, UniProt P08684); conditions: inhibitor 0.02 μM
Experimental: Assays for the kinetics of inhibition were done using an OLIS RSM-1000 stopped-flow instrument (On-Line Instrument Systems) in the fluorescence mode (150 W xenon lamp), with the excitation monochromator set at 410 nm and using a >515 nm Oriel long-pass filter (Newport) with the sample photomultiplier tube. The slit widths were 6.32 mm, and the sample and reference voltages of the photomultiplier tubes were 700 and 350 V, respectively. Reactions were done at 23 °C for 180 s.
One syringe contained the P450 3A4 system (100 nM P450 3A4, 200 nM POR, and 100 nM cytochrome b5) along with the other components of a “5×” mixture (potassium Hepes (pH 7.4), reduced glutathione, sodium cholate, and phospholipid mixture) combined with the 5× buffer mixture (Hepes, MgCl2, and reduced glutathione) ([42]), plus NADPH and the inhibitor compound. Fluorescence data were collected for 3 min (at 23 °C) and moved to Excel, Prism, and KinTek Explorer programs for analysis.

[2] = target: T1, P450 3A4; assay: Inhibitor-binding kinetics (stopped-flow absorbance, SVD analysis); conditions: P450 3A4 2 μM
Text: Equal volumes of buffered solutions of P450 3A4 and ligand were mixed, with a nominal dead time of 2 ms. Data were collected in the Show Pre-trigger Mode, with a short amount of data from the previous run (completed reaction) shown prior to mixing. […] From the accumulated spectra from each individual experiment (5–10 shots per concentration), generally the A420 data were subtracted from the A390 data points or A390 data were subtracted from the A425 data points, and the difference (ΔA390 − A420 or ΔA425 − A390 versus time) traces were averaged using the OLIS GlobalWorks software and fit to first-order fits (or used in SVD analysis; Figs. 9 and S7–S10).

[3] = target: T1, P450 3A4; conditions: P450 enzyme system + NADPH, UPLC-MS
[4] = target: T2, P450 3A4 (Homo sapiens, UniProt P08684, form not given); assay: in vitro; conditions: P450 3A4 reconstituted with cholate/phospholipid mixture, probe 7-OBz quinoline (7-benzoyl quinoline) O-debenzylation, 20 μM
T2 sequence (P08684 13-503): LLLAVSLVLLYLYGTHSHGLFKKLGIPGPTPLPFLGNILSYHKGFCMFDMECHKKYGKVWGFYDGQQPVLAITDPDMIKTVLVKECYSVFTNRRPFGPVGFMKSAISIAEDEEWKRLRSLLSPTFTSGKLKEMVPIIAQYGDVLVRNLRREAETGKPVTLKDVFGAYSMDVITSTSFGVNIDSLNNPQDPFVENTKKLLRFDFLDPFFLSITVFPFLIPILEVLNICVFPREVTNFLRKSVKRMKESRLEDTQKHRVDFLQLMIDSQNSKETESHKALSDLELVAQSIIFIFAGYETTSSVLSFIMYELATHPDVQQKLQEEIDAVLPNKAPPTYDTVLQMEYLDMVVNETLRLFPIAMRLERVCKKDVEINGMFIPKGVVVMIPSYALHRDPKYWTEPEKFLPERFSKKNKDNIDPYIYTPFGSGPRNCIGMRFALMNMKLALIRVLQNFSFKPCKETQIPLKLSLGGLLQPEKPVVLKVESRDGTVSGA
T2 sequence (P00388 2-678 partner): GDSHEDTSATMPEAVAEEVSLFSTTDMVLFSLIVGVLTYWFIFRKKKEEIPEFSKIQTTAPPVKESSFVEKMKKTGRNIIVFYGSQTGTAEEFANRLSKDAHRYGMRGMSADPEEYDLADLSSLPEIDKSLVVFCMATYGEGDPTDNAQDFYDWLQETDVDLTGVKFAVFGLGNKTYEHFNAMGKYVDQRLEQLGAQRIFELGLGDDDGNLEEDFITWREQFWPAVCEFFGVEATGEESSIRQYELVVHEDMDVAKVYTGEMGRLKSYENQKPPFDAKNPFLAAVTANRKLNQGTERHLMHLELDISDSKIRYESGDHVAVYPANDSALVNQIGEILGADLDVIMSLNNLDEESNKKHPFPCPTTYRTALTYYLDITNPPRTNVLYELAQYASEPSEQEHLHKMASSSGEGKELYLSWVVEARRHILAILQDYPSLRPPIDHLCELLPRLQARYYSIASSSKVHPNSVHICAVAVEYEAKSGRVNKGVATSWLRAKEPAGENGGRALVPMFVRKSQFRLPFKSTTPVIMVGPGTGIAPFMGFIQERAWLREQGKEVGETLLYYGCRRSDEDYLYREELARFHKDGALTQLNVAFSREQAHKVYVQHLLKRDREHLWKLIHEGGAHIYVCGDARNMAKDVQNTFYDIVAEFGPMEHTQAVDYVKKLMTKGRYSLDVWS
T2 sequence (P00167 2-134 partner): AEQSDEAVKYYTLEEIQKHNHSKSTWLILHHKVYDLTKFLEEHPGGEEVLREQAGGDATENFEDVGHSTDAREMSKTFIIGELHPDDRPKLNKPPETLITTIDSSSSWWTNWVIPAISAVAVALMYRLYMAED

[5] = target: T2, P450 3A4; assay: in vitro; conditions: P450 3A4 reconstituted with cholate/phospholipid mixture, probe testosterone 6β-hydroxylation, 25 μM
[6] = target: T1, P450 3A4; conditions: equimolar inhibitor (50 nM), 160 μM 7-OBz quinoline added, 23 °C
[7] = inhibitor 15 μM, three-species 1→2→3 model

T1 sequence (P08684 13-503): as the sequence (P08684 13-503) above
T1 sequence (P00388 2-678 partner): as the sequence (P00388 2-678 partner) above
T1 sequence (P00167 2-134 partner): as the sequence (P00167 2-134 partner) above

Structure (SMILES)	Onset of 7-OBz quinoline O-debenzylation inhibition, Rate (k1) [1]	Spectral binding (SVD) k1 [2, 7]	Spectral binding (SVD) k2 [2, 7]	kobs, initial rate of binding (ΔA390 − A425) ([2]; ligand 4 μM final)	substrate for P450 3A4 (product formation) [3]	IC50 at 8 min [4]	IC50 at 15 min [5]	lag phase in recovery of catalytic activity [6]
Clc1ccccc1C(c1ccccc1)(c1ccccc1)n1ccnc1 [Clotrimazole]	0.39 ± 0.03 s⁻¹	0.092 ± 0.01 s	0.016 ± 0.005 s⁻¹	235 s⁻¹	is a substrate as well as an inhibitor of P450 3A4	110 nM	110 nM	~45 s
CCC(C)n1ncn(-c2ccc(N3CCN(c4ccc(OCC5COC(Cn6cncn6)(c6ccc(Cl)cc6Cl)O5)cc4)CC3)cc2)c1=O (stereo not shown) [Itraconazole]	–	–	–	–	–	2020 nM	1490 nM	–
